The values that follow come from patent US8569302B2, “Inhibitors of flaviviridae viruses” (Gilead Sciences, Inc., priority 2009, dated 2013).

One assay has as its system human hepatoma Huh-7 cell line harboring a HCV replicon. As to the kind of experiment: HCV replicon assay (inhibition of viral replication, luciferase readout). Format: cell-based. Conditions: Hepatitis C virus, 72 h, Huh-7 HCV replicon cells, 3 days incubation. The procedure: The anti-HCV activity of the compounds of this invention was tested in a human hepatoma Huh-7 cell line harboring a HCV replicon. The assay comprised the following steps:
Step 1: Compound Preparation and Serial Dilution.
Serial dilution was performed in 100% DMSO in a 384-well plate. A solution containing a compound at 225-fold concentration of the starting final serial dilution concentration was prepared in 100% DMSO and 15 μL added to the pre-specified wells in column 3 or 13 of a polypropylene 384-well plate. The rest of the 384-well plate was filled with 10 μL 100% DMSO except for columns 23 and 24, where 10 μL of 500 μM a HCV protease inhibitor (ITMN-191) in 100% DMSO was added. The HCV protease inhibitor was used a control of 100% inhibition of HCV replication. The plate was then placed on a Biomek FX Workstation to start the serial dilution. The serial dilution was performed for ten cycles of 3-fold dilution from column 3 to 12 or from column 13 to 22.
Step 2: Cell Culture Plate Preparation and Compound Addition
To each well of a black polypropylene 384-well plate, 90 μL of cell media containing 1600 suspended Huh-7 HCV replicon cells was added with a Biotek uFlow Workstation. A volume of 0.4 μL of the compound solution was transferred from the serial dilution plate to the cell culture plate on a Biomek FX Workstation. The DMSO concentration in the final assay condition was 0.44%. The plates were incubated for 3 days at 37° C. with 5% CO2 and 85% humidity.
Step 3: Detection of Cytotoxicity and Inhibition of Viral Replication
a) Assessment of cytotoxicity: The media in the 384-well cell culture plate was aspirated with a Biotek EL405 plate-washer. A volume of 50 μL of a solution containing 400 nM Calcein AM in 100% PBS was added to each well of the plate with a Biotek uFlow Workstation. The plate was incubated for 30 minutes at room temperature before the fluorescence signal ([…]) was measured with a Perkin Elmer Envision Plate Reader.
b) Assessment of inhibition of viral replication: The calcein-PBS solution in the 384-well cell culture plate was aspirated with a Biotek EL405 plate-washer. A volume of 20 μL of Dual-Glo luciferase buffer (Promega, Dual-Glo Luciferase Assay Reagent, cat. #E298B) was added to each well of the plate with a Biotek uFlow Workstation. The plate was incubated for 10 minutes at room temperature. A volume of 20 μL of a solution containing 1:100 mixture of Dual-Glo Stop & Glo substrate (Promega, Dual-Glo Luciferase Assay Reagent, cat. #E313B) and Dual-Glo Stop & Glo buffer (Promega, Dual-Glo Luciferase Assay Reagent, cat. #E314B) was then added to each well of the plate with a Biotek uFlow Workstation. The plate was incubated at room temperature for 10 minutes before the luminescence signal was measured with a Perkin Elmer Envision Plate Reader.
The percent cytotoxicity was determined by calcein AM conversion to fluorescent product. The average fluorescent signal from the DMSO control wells was defined as 100% nontoxic. The individual fluorescent signal from testing compound treated well was divided by the average signal from DMSO control wells and then multiplied by 100% to get the percent viability. The percent anti-HCV replication activity was determined by the luminescence signal from the testing well compared to DMSO control wells. The background signal was determined by the average luminescence signal from the HCV protease inhibitor treated wells and was subtracted from the signal from the testing wells as well as the DMSO control wells. Following 3-fold serial dilutions, the EC50 and CC50 values were calculated by fitting % inhibition at each concentration to the following equation: % inhibition=100%/[EC50/[I])^b+1]
Where b is Hill's coefficient. See, for reference, Hill, A. V., The Possible Effects of the Aggregation of the Molecules of Hæmoglobin on its Dissociation Curves, J. Physiol. 40: iv-vii. (1910). […]
In turn, `C[C@@H](CCOc1cc(CN2CCCC2)ccn1)N(c1cc(C#CC(C)(C)C)sc1C(=O)O)C(=O)[C@H]1CC[C@H](C)CC1` [Compound 62, 5-(3,3-dimethyl-but-1-ynyl)-3-[(trans-4-methyl-cyclohexanecarbonyl)-[1-(S)-methyl-3-(4-pyrrolidin-1-yl-methyl-pyridin-2-yloxy)-propyl]-amino]-thiophene-2-carboxylic acid] gave an inhibition at 2 µM of 100%.
Take `CC(C)(C)C#Cc1cc(N(C(=O)[C@H]2CC[C@H](C)CC2)[C@H]2CC[C@H](Oc3nccc(=O)[nH]3)CC2)c(C(=O)O)s1` [Compound 326, 5-(3,3-Dimethyl-but-1-ynyl)-3-{(4-methyl-cyclohexanecarbonyl)-[4-(6-oxo-1,6-dihydro-pyrimidin-2-yloxy)-cyclohexyl]-amino}-thiophene-2-carboxylic acid]: the inhibition at 2 µM worked out at 99.9%.
For the compound `CC(C)(C)C#Cc1cc(N(C(=O)[C@H]2CC[C@H](C)CC2)[C@H]2CC[C@H](Oc3ncccn3)CC2)c(C(=O)O)s1` [Compound 4, 5-(3,3-Dimethyl-but-1-ynyl)-3-{(trans-4-methyl-cyclohexanecarbonyl)-[trans-4-(pyrimidin-2-yloxy)-cyclohexyl]-amino}-thiophene-2-carboxylic acid], testing at 2 µM gave an inhibition of 99.9%.
In turn, `CC1CCC(C(=O)N(c2cc(C#CC(C)(C)C)sc2C(=O)O)[C@H]2CC[C@H](Oc3cncc(CN4CCOCC4)c3)CC2)CC1` (stereo partly shown) [Compound 194, 3-[[4-(5-morpholin-4-ylmethyl-pyridin-3-yloxy)-cyclohexyl]-(4-methyl-cyclohexanecarbonyl)-amino]-5-(3,3-dimethyl-but-1-ynyl)-thiophene-2-carboxylic acid] came in with an inhibition at 2 µM of 99.9%.
As for `Cn1nc(O[C@H]2CC[C@H](N(c3cc(C#CC(C)(C)C)sc3C(=O)O)C(=O)[C@H]3CC[C@H](C)CC3)CC2)ccc1=O` [Compound 174, 5-(3,3-Dimethylbut-1-ynyl)-3-(4-methyl-N-(4-(1-methyl-6-oxo-1,6-dihydropyridazin-3-yloxy)cyclohexyl)cyclohexanecarboxamido)thiophene-2-carboxylic acid], the inhibition at 2 µM came out at 100%.
Turning to `CC(C)(C)C#Cc1cc(N(C(=O)[C@H]2CC[C@H](C)CC2)[C@H]2CC[C@H](Oc3ccc(CN4CCCC4=O)cn3)CC2)c(C(=O)O)s1` [Compound 170, Sodium 5-(3,3-dimethylbut-1-ynyl)-3-(4-methyl-N-(4-(5-((2-oxopyrrolidin-1-yl)methyl)pyridin-2-yloxy)cyclohexyl)cyclohexanecarboxamido)thiophene-2-carboxylate], 2 µM produced 99.9% inhibition.
The compound `CC(C)(C)C#Cc1cc(N(C(=O)[C@H]2CC[C@H](C)CC2)C2CCN(S(=O)(=O)c3cnc(=O)[nH]c3)CC2)c(C(=O)O)s1` [Compound 208, 5-(3,3-Dimethyl-but-1-ynyl)-3-{(4-methyl-cyclohexanecarbonyl)-[1-(2-oxo-1,2-dihydro-pyrimidine-5-sulfonyl)-piperidin-4-yl]-amino}-thiophene-2-carboxylic acid] registered an inhibition at 2 µM of 63.8%.
As to `CC1CCC(C(=O)N(c2ccc(Oc3ccccn3)cc2)c2cc(C#CC(C)(C)C)sc2C(=O)O)CC1` (stereo not shown) [Compound 30, 5-(3,3-Dimethyl-but-1-ynyl)-3-{(4-methyl-cyclohexanecarbonyl)-[4-(pyridin-2-yloxy)-phenyl]-amino}-thiophene-2-carboxylic acid], the inhibition at 2 µM was determined as 70.7%.
With `Cn1cnnc1S[C@H]1CC[C@H](N(c2cc(C#CC(C)(C)C)sc2C(=O)O)C(=O)[C@H]2CC[C@H](C)CC2)CC1` [Compound 84, 5-(3,3-dimethylbut-1-ynyl)-3-(4-methyl-N-(4-(4-methyl-4H-1,2,4-triazol-3-ylthio)cyclohexyl)cyclohexanecarboxamido)thiophene-2-carboxylic acid], the inhibition at 2 µM was determined as 99.9%.
The compound `CC1CCC(C(=O)N(c2cc(C#CC(C)(C)C)sc2C(=O)O)[C@H]2CC[C@H](Oc3cnccc3CN3CCC3)CC2)CC1` (stereo partly shown) [Compound 197, 3-[[-4-(4-azetidin-1-ylmethyl-pyridin-3-yloxy)-cyclohexyl]-(4-methyl-cyclohexanecarbonyl)-amino]-5-(3,3-dimethyl-but-1-ynyl)-thiophene-2-carboxylic acid] gave an inhibition at 2 µM of 99.9%.
On to `CC1=CC[C@H](C(=O)N(c2cc(C#CC(C)(C)C)sc2C(=O)O)[C@H]2CC[C@H](OC3CCOC3)CC2)CC1` (stereo partly shown) [Compound 335], for which 2 µM produced 99.9% inhibition.
Turning to `CCc1cnc(O[C@H]2CC[C@H](N(c3cc(C#CC(C)(C)C)sc3C(=O)O)C(=O)[C@H]3CC[C@H](C)CC3)CC2)nc1` [Compound 148, 5-(3,3-Dimethylbut-1-ynyl)-3-(N-(4-(5-ethylpyrimidin-2-yloxy)cyclohexyl)-4-methylcyclohexanecarboxamido)thiophene-2-carboxylic acid], the inhibition at 2 µM turned out to be 96.6%.
Take `CC(C)(C)C#Cc1cc(N(C(=O)[C@H]2CC[C@H](C)CC2)[C@H]2CC[C@H](Oc3cnc(Cl)cn3)CC2)c(C(=O)O)s1` [Compound 184, 3-(N-(4-(5-Chloropyrazin-2-yloxy)cyclohexyl)-4-methylcyclohexanecarboxamido)-5-(3,3-dimethylbut-1-ynyl)thiophene-2-carboxylic acid]: at 2 µM the inhibition was 97.8%.
Same read-out and setting: with `CC(C)(C)C#Cc1cc(N(C(=O)[C@H]2CC[C@H](C)CC2)[C@H]2CC[C@H](Oc3ccnnc3)CC2)c(C(=O)O)s1` [Compound 185, 5-(3,3-Dimethylbut-1-ynyl)-3-(4-methyl-N-(4-(pyridazin-4-yloxy)cyclohexyl)cyclohexanecarboxamido)thiophene-2-carboxylic acid] the figure was 84.7%; with `Cn1cnc(S(=O)(=O)N2CCC(N(c3cc(C#CC(C)(C)C)sc3C(=O)O)C(=O)[C@H]3CC[C@H](C)CC3)CC2)c1` [Compound 201, 5-(3,3-Dimethyl-but-1-ynyl)-3-{(4-methyl-cyclohexanecarbonyl)-[1-(1-methyl-1′-1-imidazole-4-sulfonyl)-piperidin-4-yl]-amino}-thiophene-2-carboxylic acid], 100%.
Still for that read-out and setting: next, `Cc1nnc(S[C@H]2CC[C@H](N(c3cc(C#CC(C)(C)C)sc3C(=O)O)C(=O)[C@H]3CC[C@H](C)CC3)CC2)s1` [Compound 102, 5-(3,3-Dimethylbut-1-ynyl)-3-(4-methyl-N-(4-(5-methyl-1,3,4-thiadiazol-2-ylthio)cyclohexyl)cyclohexanecarboxamido)thiophene-2-carboxylic acid]: 99.9%; `CC(C)(C)C#Cc1cc(N(C(=O)[C@H]2CC[C@H](C)CC2)[C@H]2CC[C@H](Oc3cc(CN4CCCC4)ccn3)CC2)c(C(=O)O)s1` [Compound 27, 5-(3,3-Dimethyl-but-1-ynyl)-3-{(trans-4-methyl-cyclohexanecarbonyl)-[trans-4-(4-pyrrolidin-1-ylmethyl-pyridin-2-yloxy)-cyclohexyl]-amino}-thiophene-2-carboxylic acid]: 100%; `CC1=CC[C@H](C(=O)N(c2cc(C#CC(C)(C)C)sc2C(=O)O)[C@H]2CC[C@H](O[C@H]3CCOC3)CC2)CC1` [Compound 336]: 100%.

The same assay, now with this note: Huh-7 HCV replicon cells, 3 days incubation.
For the compound `CC(C)(C)C#Cc1cc(N(C(=O)[C@H]2CC[C@H](C)CC2)[C@H]2C[C@@H](Oc3ccc[n+]([O-])c3)C2)c(C(=O)O)s1` [Compound 145, 5-(3,3-Dimethyl-but-1-ynyl)-3-{(trans-4-methyl-cyclohexanecarbonyl)-[cis-3-(pyridin-3-yloxy-N-oxide)-cyclobutyl]-amino}-thiophene-2-carboxylic acid], the “% inhibition at 2μM” value turned out to be 99.5%.
